“And” between values parts separate entries of the source, which are not always exact repeats. Identical values can stand only once.
Test system: receptors coupled to Gi proteins expressed on osteoblasts
Assay: Cellular Dielectric Spectroscopy (CDS, CELLKEY) response to Gi-coupled receptor ligands in osteoblasts from control and AIS subjects
Type: cell-based, human
Details: for dZiec value: n1, n2 of Exper. 1-3
From the text: Bone specimens were obtained intraoperatively from vertebras (varying from T3 to L4 according to the surgical procedure performed), while with trauma cases used as non-scoliotic controls bone specimens were obtained from other anatomical sites (tibia or femur, and in one case from an iliac crest biopsy). Osteoblasts and myoblasts isolated as previously described (Moreau A, Wang D S, Forget S et al. Melatonin Signaling Dysfunction in Adolescent Idiopathic Scoliosis. Spine 2004; 29:1772-81; Azeddine et al., 2007 Molecular determinants of melatonin signaling dysfunction in adolescent idiopathic scoliosis. Clin Orthop Relat Res. 2007, 462:45-52), were cultured at 37° C./5% CO2 in MEM supplemented with 10% fetal bovine serum (FBS) and 100 μg/mL streptomycin. Prior to the experiment, cells were seeded into the CELLKEY™ label-free cellular analysis system standard 96-well plates at a density of 5×10^4/well and grown for 24 h and incubated in standard conditions (37° C./5% CO2). In some plates, Pertussis toxin (100 ng/mL, Sigma, Oakville, ON, Canada) treatment was performed 16 h before the CDS assay. Following overnight incubation, plates were placed onto the CELLKEY™ label-free cellular analysis system and growth medium was exchanged to assay buffer (Hanks, Balanced Salt Solution containing 20 mM HEPES and 0.1% BSA) before starting the experiment. Cells were then allowed to equilibrate at room temperature for 30 min. Pre-addition measurements were made for 5 min to obtain a baseline reading. […] The quick update rate (2 s.) of the CELLKEY™ label-free cellular analysis system allows detection of these immediate changes in impedance. Impedance measurements were collected for 10 min to 15 min at 28° C. after ligand addition to monitor cellular responses to ligand interaction and to generate CELLKEY™ label-free cellular analysis system response profiles that are characteristic of the signaling mechanisms used.
The response induced by the various ligands to their receptors was measured by cellular dielectric spectroscopy (CDS) using the CELLKEY™ label-free cellular analysis technology. (MDS Sciex, San Francisco, Calif., USA). The CELLKEY™ label-free cellular analysis system integrates a proprietary impedance measurement system, custom 96-well microliter plate, onboard 96-well fluidics, and environment control and custom acquisition and analysis software in a full solution package (MDS Sciex) that is compatible with commercially available robotic platforms. Small voltage at 24 frequencies, from 1 KHz to 10 MHz, is applied to a monolayer of cells settled in a 96-well microplate containing electrodes at the bottom, and the resultant current is measured at an update rate of 2 s. […] Onboard fluid additions and exchanges are handled by 96-well head fluid delivery device with a range of 5-500 μL. In addition to the cell plate location, the CELLKEY™ label-free cellular analysis system includes two additional stations for 96- or 384-well compound plates. All aspects of assay set up, execution, and data acquisition and analysis are controlled by CELLKEY™ label-free cellular analysis software.
The minimal (min) and maximal (max) values represent the mean of three independent measurements performed in duplicate (six values in total) for a given patient/control subject. […] Duplicates (n1 and n2) of three independent experiments are presented.

[1] = osteoblasts of control subjects, 300 μM ligand, from FIGS. 11A-11F

## O=C(NC1CCCCC1)c1cn(CCN2CCOCC2)c2cc(Cl)ccc2c1=O [CB65, N-Cyclohexyl-7-chloro-1-[2-(4-morpholinyl)ethyl]quinolin-4(1H)-one-3-carboxamide]
Osteoblasts of AIS#1020 (Group 3) relative to CTR#60
  % of control: 43.1% and 47.5% and 45.6% and 43.5% and 46.2%
Osteoblasts of AIS#1020 (Group 3), 300 μM ligand
  dZiec value: 61.81 and 73.81 and 74.95 and 82.95 and 69.38 and 77.38
Osteoblasts of AIS#1198 (Group 3 in Table II) relative to CTR#69
  % of control: 51.5% and 55.2% and 57.8% and 59.7% and 55.1% and 57.3%
Osteoblasts of AIS#1198 (Group 3 in Table II), 300 μM ligand
  dZiec value: 72.90 and 84.90 and 94.57 and 102.57 and 84.73 and 92.73
Osteoblasts of AIS#1385 (Group 2) relative to CTR#69
  % of control: 46.7% and 50.9% and 51.8% and 54.1% and 49.8% and 52.3%
Osteoblasts of AIS#1385 (Group 2), 300 μM ligand
  dZiec value: 66.15 and 78.15 and 84.86 and 92.86 and 76.50 and 84.50
Osteoblasts of AIS#1468 (Group 3) relative to CTR#61
  % of control: 57.0% and 60.3% and 64.0% and 65.6% and 61.0% and 62.9%
Osteoblasts of AIS#1468 (Group 3), 300 μM ligand
  dZiec value: 82.16 and 94.16 and 107.91 and 115.91 and 96.04 and 104.04
Osteoblasts of AIS#1474 (Group 1) relative to CTR#60
  % of control: 25.3% and 24.7% and 26.9% and 24.6% and 23.5% and 27.2%
Osteoblasts of AIS#1474 (Group 1), 300 μM ligand
  dZiec value: 36.30 and 38.30 and 46.79 and 44.79 and 37.55 and 45.55
Osteoblasts of AIS#1488 (Group 1) relative to CTR#69
  % of control: 29.2% and 28.2% and 33.2% and 30.5% and 28.5% and 32.1%
Osteoblasts of AIS#1488 (Group 1), 300 μM ligand
  dZiec value: 41.30 and 43.30 and 54.43 and 52.43 and 43.87 and 51.87
Osteoblasts of AIS#1513 (Group 3) relative to CTR#61
  % of control: 74.8% and 76.7% and 76.6% and 77.6% and 75.9% and 77.1%
Osteoblasts of AIS#1513 (Group 3), 300 μM ligand
  dZiec value: 107.73 and 119.73 and 129.10 and 137.10 and 119.41 and 127.41
Osteoblasts of AIS#1549 (Group 1) relative to CTR#61
  % of control: 25.3% and 18.2% and 19.1% and 22.8% and 19.3% and 23.2%
Osteoblasts of AIS#1549 (Group 1), 300 μM ligand
  dZiec value: 36.48 and 28.48 and 32.23 and 40.23 and 30.36 and 38.36
Osteoblasts of AIS#1550 (Group 2) relative to CTR#60
  % of control: 38.5% and 36.8% and 38.3% and 35.5% and 35.6% and 38.7%
Osteoblasts of AIS#1550 (Group 2), 300 μM ligand
  dZiec value: 55.13 and 57.13 and 66.49 and 64.49 and 56.81 and 64.81
Osteoblasts of control CTR#60, 300 μM ligand
  dZiec value: 143.28/— and 155.28/— and 173.77/— and 181.77/— and 159.53/— and 167.53/—
Osteoblasts of control CTR#61, 300 μM ligand
  dZiec value: 144.08/— and 156.08/— and 168.59/— and 176.59/— and 157.34/— and 165.34/—
Osteoblasts of control CTR#69, 300 μM ligand
  dZiec value: 141.68/— and 153.68/— and 163.73/— and 171.73/— and 153.70/— and 161.70/—
[1]
  Absolute dZiec, control value of max diff. (maximal control value): 169
  Absolute dZiec, control value of min diff. (minimal control value): 138
osteoblasts, AIS Group 1 value of max diff., 300 μM ligand, from FIGS. 11A-11F
  Absolute dZiec, Group 1, max diff. (group value): 34
osteoblasts, AIS Group 1 value of min diff., 300 μM ligand, from FIGS. 11A-11F
  Absolute dZiec, Group 1, min diff. (group value): 47
osteoblasts, AIS Group 1 vs maximal control value
  % of control signal, Group 1, max diff.: 20%
osteoblasts, AIS Group 1 vs minimal control value
  % of control signal, Group 1, min diff.: 34%
osteoblasts, AIS Group 2 value of max diff., 300 μM ligand, from FIGS. 11A-11F
  Absolute dZiec, Group 2, max diff. (group value): 60
osteoblasts, AIS Group 2 value of min diff., 300 μM ligand, from FIGS. 11A-11F
  Absolute dZiec, Group 2, min diff. (group value): 88
osteoblasts, AIS Group 2 vs maximal control value
  % of control signal, Group 2, max diff.: 36%
osteoblasts, AIS Group 2 vs minimal control value
  % of control signal, Group 2, min diff.: 64%
osteoblasts, AIS Group 3 value of max diff., 300 μM ligand, from FIGS. 11A-11F
  Absolute dZiec, Group 3, max diff. (group value): 100
osteoblasts, AIS Group 3 value of min diff., 300 μM ligand, from FIGS. 11A-11F
  Absolute dZiec, Group 3, min diff. (group value): 123
osteoblasts, AIS Group 3 vs maximal control value
  % of control signal, Group 3, max diff.: 55%
osteoblasts, AIS Group 3 vs minimal control value
  % of control signal, Group 3, min diff.: 89%

Reference: patent US10620222B2, “Electrified compositions for determining the risk of developing adolescent idiopathic scoliosis through the use of GI protein receptor” (CHU Sainte-Justine, priority 2008, dated 2020)
